Values quoted from earlier work as cited in patent US11065213B2, “Amantadine compositions and preparations thereof” (Adamas Pharma, LLC, priority 2017, dated 2021).
Where two headings read alike, the source gives them in different places.

System: LID in PD patients
Settings: IR formulation

NC12CC3CC(CC(C3)C1)C2 [amantadine]
reduction in LID (200 mg/day): approximately 25%
reduction of LID (300 mg/day): ~40%
reduction of LID (300 to 400 mg/day): ~60%
